From publication PMC3600154 (Nature, 2013)

Target: mouse CALHM1 (Mus musculus, UniProt D3Z291)
Conditions: permeant released through the channel; pH 7.4

Sequence of mouse CALHM1 (D3Z291 whole entry): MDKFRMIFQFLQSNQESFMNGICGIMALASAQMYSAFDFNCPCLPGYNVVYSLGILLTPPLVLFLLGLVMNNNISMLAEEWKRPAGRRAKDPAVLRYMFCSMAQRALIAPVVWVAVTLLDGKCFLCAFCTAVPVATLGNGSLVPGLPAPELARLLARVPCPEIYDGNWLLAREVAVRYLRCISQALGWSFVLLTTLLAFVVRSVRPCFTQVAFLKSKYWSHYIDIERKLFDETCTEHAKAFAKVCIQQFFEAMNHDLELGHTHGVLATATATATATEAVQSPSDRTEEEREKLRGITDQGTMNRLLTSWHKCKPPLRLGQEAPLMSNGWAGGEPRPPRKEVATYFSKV

SMILES: Nc1ncnc2c1ncn2[C@@H]1O[C@H](COP(=O)(O)OP(=O)(O)OP(=O)(O)O)[C@@H](O)[C@H]1O [ATP, adenosine 5′-triphosphate]
- luciferin-luciferase ATP release assay, transfected HeLa cells: Expression of mouse CALHM1 conferred ATP release with similar properties
